Earlier results as cited in US20090117076A1, “Methods For Treating Tumor Cells” (priority 2007, published 2009).
Where a name gives a salt, the structure may show the parent alone. Read-outs that look alike come from different tables or passages of the source.

What was measured:
[1] = primates
GIST = details: for Median time to progression, historical value: single agent imatinib

## interferon α-2b
[1]
  Abortifacient effect: abortifacient

## Cc1ccc(NC(=O)c2ccc(CN3CCN(C)CC3)cc2)cc1Nc1nccc(-c2cccnc2)n1 [imatinib, imatinib mesylate]
GIST; human, in vivo
  Overall response rate of tumor necrosis/apoptosis: 69%
GIST; subgroup with KIT exon 11 mutation
  Median time to progression, historical value: 687 days
GIST; subgroup without KIT exon 11 mutation
  Median time to progression, historical value: 200 days
